Experiment [1] has as its target T1, human prion protein 23–231 (PrP, unlabeled wild type) (Homo sapiens, UniProt P04156).
T1 construct: gene PRNP
In words: biochemical. Format: binding.

Experiment [2] deals with T2, human prion protein 91–231 (Homo sapiens, UniProt P04156).
T2 construct: gene PRNP
In words: biochemical. Format: binding.

Structures can show the parent of a compound that is named as a salt.

As usually defined, the IC50 is the concentration needed to halve the response being measured. A lower IC50 goes with greater potency. In general, Kd refers to the constant that tells how readily two partners part at equilibrium. A lower Kd goes with higher affinity.

Compound `NC(CO)C(=O)NNCc1ccc(O)c(O)c1O` (stereo not shown) [Benserazide HCl] showed an IC50 in experiment [1] of over 100 µM.

The compound `O=C1c2c(O)cccc2Cc2cccc(O)c21` [Anthralin] gave an IC50 in experiment [1] of over 100 µM.

As to `CC(C)/N=c1\cc2n(-c3ccc(Cl)cc3)c3ccccc3nc-2cc1Nc1ccc(Cl)cc1` [Clofazimine], in experiment [1], the IC50 is over 100 µM.

The compound `C[C@@H]1[C@H](O)[C@@H](C)/C=C/C=C/C=C/C=C/C=C/C=C/C=C/[C@H](O[C@@H]2O[C@H](C)[C@@H](O)[C@H](N)[C@@H]2O)C[C@@H]2O[C@](O)(C[C@@H](O)C[C@@H](O)[C@H](O)CC[C@@H](O)C[C@@H](O)CC(=O)O[C@H]1C)C[C@H](O)[C@H]2C(=O)O` [Amphotericin B] had an IC50 in experiment [1] of 88.8 µM.

`COc1cc(C(=O)NS(=O)(=O)c2ccccc2C)ccc1Cc1cn(C)c2ccc(NC(=O)OC3CCCC3)cc12` [Zafirlukast] came in with an IC50 in experiment [1] of 85.7 µM.

Turning to `COc1cc(-c2ccc(N=Nc3ccc4c(S(=O)(=O)O)cc(S(=O)(=O)O)c(N)c4c3O)c(OC)c2)ccc1N=Nc1ccc2c(S(=O)(=O)O)cc(S(=O)(=O)O)c(N)c2c1O` [Chicago Sky Blue 6B], the Kd in experiment [2] was 1430 ± 240 nM.

As to `CC[N+](C)(CC)CCC[n+]1c(-c2ccccc2)c2cc(N)ccc2c2ccc(N)cc21` [Propidium iodide], the IC50 in experiment [1] is over 100 µM.

The values above are taken from PMC4505445 (The Journal of Biological Chemistry, 2015).
